Reference: patent US8841073B2, “Methods for identifying RNA segments bound by RNA-binding proteins or ribonucleoprotein complexes” (The Rockefeller University, priority 2008, dated 2014)
[4sU] = 4-thiouridine

Columns and labels:
[1] = biological target: T1, FLAG/HA-tagged RBP IGF2BP1 (Homo sapiens, UniProt Q9NZI8); test: UV 365 nm crosslinking of RNA to FLAG/HA-IGF2BP1 in cells cultured with photoreactive nucleoside (IP, 32P-labeling, SDS gel phosphorimaging); format: cell-based; details: 100 μM photoreactive nucleoside, 365 nm UV
T1 construct: expressed in transfected cells; host or cells: Flp-In T-REx HEK293 (Invitrogen), pFRT/TO/FLAG/HA-DEST, doxycycline-induced
Description: FIG. 1. PURE-CLIP methodology. A Structure of photoreactive nucleosides. B Incorporation of photoreactive nucleosides to enable UV 365 nm crosslinking of RNA to RNA-binding IGF2BP1 protein. Upper panels show phosphorimages of SDS protein gels resolving 5′-32P-labeled RNA-FLAG/HA-IGF2BP1 immunoprecipitates (IPs) prepared from lysates from cells that were cultured in media in the absence or presence of 100 μM photoreactive nucleoside for 12 hrs and crosslinked with 365 nm UV. For comparison, a sample prepared from cells crosslinked at 254 nm, was included. Lower panels show immunoblots probed with an anti-HA antibody confirming uniform gel loading. C Illustration of the method. […]
Incorporation of modified photoreactive nucleoside analogues into RNA facilitates UV crosslinking to RBPs (Meisenheimer and Koch, 1997), as shown previously for in vitro transcribed site-specifically labeled RNAs (Kirino and Mourelatos, 2008; Moore and Query, 1998). Several of these photoreactive nucleosides are excitable by longer wavelength UV (>300 nm) and are readily taken up by cells, where they are incorporated into nascent transcripts without noticeable toxicity and then can be used for in vivo crosslinking (Bezerra and Favre, 1990; Favre et al., 1986; Wagenmakers et al., 1980). […]

recombinant QKI protein = biological target: T2, recombinant QKI protein (Homo sapiens, UniProt Q96PU8); test: UV 365 nm crosslinking of synthetic 4SU-containing oligoribonucleotides to recombinant QKI; format: biochemical; details: 4SU at position 2 vs position 3 of the recognition element
T2 construct: His6 (N); made in house; host or cells: E. coli STAR(DE3)
T2 sequence (Q96PU8 1-319 isoform Q96PU8-9): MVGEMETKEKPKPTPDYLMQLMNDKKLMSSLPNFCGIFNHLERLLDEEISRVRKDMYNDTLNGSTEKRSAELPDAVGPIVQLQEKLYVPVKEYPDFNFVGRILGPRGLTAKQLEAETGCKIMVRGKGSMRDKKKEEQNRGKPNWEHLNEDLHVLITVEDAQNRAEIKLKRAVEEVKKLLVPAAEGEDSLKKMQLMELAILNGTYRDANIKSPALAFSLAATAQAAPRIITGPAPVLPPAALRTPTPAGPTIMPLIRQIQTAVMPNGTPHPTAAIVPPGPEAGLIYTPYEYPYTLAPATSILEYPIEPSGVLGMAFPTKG
Source text: FIG. 3. RNA recognition sites of QKI protein. A Domain structure of QKI protein. B Phosphorimage of SDS polyacrylamide gel resolving radiolabeled RNA crosslinked to FLAG/HA-QKI IPs from non-irradiated or UV-irradiated 4SU-labeled cells. […] C Two alignments of PURE-CLIP cDNA sequence reads to the corresponding regions of the 3′UTRs of the Refseq CTNNB1 and HOXD13 transcripts, respectively. Red bars indicate the QKI recognition motif and red-letter nucleotides indicate T to C sequence changes. D Weblogo of the QKI recognition motif generated by PhyloGibbs analysis of the top 100 sequence read clusters. […] F Sequences of synthetic 4SU-labeled oligoribonucleotides with QKI recognition motifs, derived from a sequence read cluster aligning to the 3′UTR of HOXD13 (see c). […]
To better understand the […] sequence conversion after sequencing of crosslinked RNA segments, we subjected synthetic 4SU-containing oligoribonucleotides together with recombinant QKI to UV 365 nm crosslinking (FIGS. 3F, G). […] RNA-binding to recombinant QKI protein was unaffected by 4SU incorporation at U9 or U10 as determined by gel-shift analysis (FIG. 11A-B), whereas regular mutation of the recognition element weakened the binding (FIG. 11C). […]

[2] = biological target: T3, recombinant His6-QKI protein (Homo sapiens, UniProt Q96PU8); test: Electrophoretic mobility shift assay (gel-shift) with recombinant QKI; format: binding
T3 construct: His6 (N); made in house; host or cells: E. coli STAR(DE3)
T3 sequence (Q96PU8 1-319 isoform Q96PU8-9): T2 sequence (Q96PU8 1-319 isoform Q96PU8-9)
Description: FIG. 11: Electrophoretic mobility shift assay (EMSA) to analyze binding of recombinant QKI to synthetic oligoribonucleotides with a sequence derived from a cluster identified by QKI PURE-CLIP. […] C Mutation of either one of the QKI binding sites (marked with red bars in the RNA-sequence) results in decreased affinity of QKI to the RNA. Mutation of both binding sites leads to complete loss of affinity of QKI to the RNA.
Radiolabeled RNA (1 nM) was incubated with recombinant His6-QKI protein at various concentrations and 100 ng tRNA in 20 μl of 20 mM HEPES-KOH, pH 7.4, 330 mM KCl, 10 mM MgCl2, 0.1 mM EDTA and 0.01% IGEPAL CA630 (Sigma). After addition of 6 μl loading dye (40% glycerol, bromophenol blue in binding buffer), the solution was loaded onto a native 10% acrylamide gel containing 0.5×TBE, running at 200 V for 2 h at room temperature, using 0.5×TBE as running buffer. The protein-bound RNA and the free RNA were quantified using a phosphorimager.

[3] = system: most abundant miRNAs in HEK293 cells; test: miRNA inhibition by cocktail of 2'-O-methyl antisense oligoribonucleotides in HEK293 cells; seed match depletion/enrichment in down-/up-regulated transcripts (Affymetrix arrays); format: cell-based, human; details: antisense cocktail vs mock
Description: All miRNAs are assumed to have U at position 1. p-values for 4 types of seeds, indicated below, were tested.
miRNAs are predominantly localized to the cytoplasm although a smaller fraction can be detected in nuclear extracts (Hwang et al., 2007; Meister et al., 2004; Pena et al., 2009; Robb et al., 2005; Weinmann et al., 2009). Our CCRs correspond to 84% exonic, 14% intronic, and 2% not assigned transcribed regions. This distribution is consistent with the predominant cytoplasmic function of miRNAs. Of the exonic CCRs, 50% distributed to the CDS, 46% to the 3′ UTR, and 4% to the 5′ UTR of mRNAs, with a specific enrichment in the 3′UTRs relative to what is expected based on the relative lengths of different transcript regions (FIG. 6D). The identification of such a large number of miRNA binding sites within the CDS was unexpected, because miRNA are believed to predominantly act on 3′ UTRs (Bartel, 2009), with a few reports providing evidence for miRNA-binding to 5′ UTR or CDS (Forman et al., 2008; Lytle et al., 2007; Orom et al., 2008; Tay et al., 2008). In order to determine if CCR-containing transcripts were indeed subject to miRNA-dependent regulation, we inhibited 25 of the most abundant miRNAs in HEK293 cells (FIG. 5C) with a cocktail of 2′-O-methyl-modified antisense oligoribonucleotides (FIG. 7A and see FIG. 28A-C for the efficiency of the individual antisense oligoribonucleotide). The change in relative mRNA abundance before and after miRNA inhibition was recorded by Affymetrix whole transcriptome array analysis.
miRNA duplexes and 2′-O-methyl oligoribonucletide transfections of HEK293 TREx Flp-In cells were carried out using Lipofectamine RNAiMAX (Invitrogen). Total RNA was isolated by TRIZOL RNA extraction. The RNA was further purified and Human Genome U133 Plus 2.0 Array (Affymetrix) analyses were performed as described previously (Landthaler et al., 2008).
CEL files of mRNA profiles from miRNA/2′O-methyl oligonucleotide and mocktransfected cell were loaded into the R software using the BioConductor affy package (Gentleman et al., 2004). The transcript probe set intensities were background-corrected, adjusted for non-specific binding and quantile normalized with the GCRMA algorithm (Wu, 2006). Probe sets with more than 6 of the 11 probes mapping ambiguously to the genome were discarded, as were probe sets that mapped to multiple genes. We then collected all probe sets matching a given gene, and we computed the logarithm of gene-level expression as the average of the log-intensity of probe sets mapping to that gene. For sequence analyses we also selected a representative transcript for each gene. This was the Genbank transcript with median 3′ UTR length corresponding to that gene. In total this procedure gave us expression measurements for 16,063 genes (and representative transcripts). The difference between the log-expression levels of a gene in samples treated with a cocktail of 2′-O-methyl oligoribonucleotides and mock transfected cells was taken as a measure of transcript stabilization upon miRNA inhibition.

T1 sequence (Q9NZI8 whole entry): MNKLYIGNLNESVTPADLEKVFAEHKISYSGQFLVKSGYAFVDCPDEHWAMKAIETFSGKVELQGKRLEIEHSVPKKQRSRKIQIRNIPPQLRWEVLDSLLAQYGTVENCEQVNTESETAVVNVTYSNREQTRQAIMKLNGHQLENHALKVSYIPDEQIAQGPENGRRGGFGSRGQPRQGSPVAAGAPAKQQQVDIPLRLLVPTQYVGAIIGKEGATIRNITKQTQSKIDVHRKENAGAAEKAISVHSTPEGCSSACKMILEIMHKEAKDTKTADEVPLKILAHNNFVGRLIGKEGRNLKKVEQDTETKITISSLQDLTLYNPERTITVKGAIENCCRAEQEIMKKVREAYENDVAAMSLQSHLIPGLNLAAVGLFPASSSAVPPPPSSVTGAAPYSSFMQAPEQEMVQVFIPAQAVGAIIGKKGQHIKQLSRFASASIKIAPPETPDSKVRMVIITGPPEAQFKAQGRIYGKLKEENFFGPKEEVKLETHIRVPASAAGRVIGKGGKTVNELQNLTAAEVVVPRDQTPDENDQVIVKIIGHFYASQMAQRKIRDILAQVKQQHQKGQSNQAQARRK

Compound	RNA-binding / affinity to recombinant QKI by gel-shift analysis [2]	efficiency of the individual antisense oligoribonucleotide (inhibition of cognate miRNA) [3]	also measured
O=c1[nH]c(=S)ccn1[C@@H]1O[C@H](CO)[C@@H](O)[C@H]1O [4SU, 4-thiouridine]			crosslinking efficiency of nucleoside-labeled RNA to IGF2BP1 [1]: crosslinked most efficiently
U9: synthetic oligoribonucleotide with 4SU at position 2 of the QKI recognition element; GUAUGCCA(4sU)AACAAAUUCAUUAACAA (SEQ ID NO: 30) (GUAUGCCAUAACAAAUUCAUUAACAA; RNA, [4sU] at 9, backbone not given here)	unaffected		crosslinking efficiency to recombinant QKI relative to oligonucleotide U10 (recombinant QKI protein): approximately 50 times
U10: synthetic oligoribonucleotide with 4SU at position 3 of the QKI recognition element; GUAUGCCAU(4sU)AACAAAUUCAUUAACAA (SEQ ID NO: 31) (GUAUGCCAUUAACAAAUUCAUUAACAA; RNA, [4sU] at 10, backbone not given here)	unaffected		
miR-301b: 2'-O-methyl antisense oligoribonucleotide GCUUUGACAAUACUAUUGCACUG (SEQ ID NO: 64) (all 2'-O-methyl, backbone not given here)		Worked	
miR-378: 2'-O-methyl antisense oligoribonucleotide CCUUCUGACUCCAAGUCCAGU (SEQ ID NO: 65) (all 2'-O-methyl, backbone not given here)		Marginal	
